Source: patent EP0343258B1, “AGENT FOR PROPHYLAXIS AND TREATMENT OF VIRALLY INFECTED DISEASES” (MITSUI TOATSU CHEMICALS, Inc., priority 1987, dated 1989)
Non-standard residues stand in square brackets, D forms with d. Residues, ends and D or L forms follow the SMILES beside them. pGlu = O=C1CC[C@@H](C(=O)O)N1

Experiments:
[1] = Toxicity test, repeated subcutaneous administration to rats; format: in vivo, wister rats; conditions: 30 mg/kg subcutaneously for consecutive 21 days
Source text: (§1) Thus, the medicament of the present invention is a safe medicament of extremely low toxicity and can be administered for a long period of time.

[2] = Toxicity test, repeated subcutaneous administration to mice; format: in vivo, ddy male mice
Source text: as §1

REO virus type II = assay: Jerne plaque assay (antibody-forming cells against SRBC) in REO virus-infected new-born NC mice; format: in vivo; conditions: 10⁵ PFU REO virus; MDP 20 µg/mouse with Freund incomplete adjuvant, given with SRBC 2 weeks after infection; measured 4 days later
Description: Two weeks after the infection of 10⁵ PFU REO virus, sheep red blood cells (referred to hereinafter simply as SRBC) was intraperitoneally administered and 4 days after the administration, the number of hemolysis plaques was measured by way of Jerne plaque assay as a production amount of antibody-forming cells against SRBC. The number of hemolysis plaques was 15±2 per 10⁶ spleen cells in a group not infected with REO virus, while that was 2.8±1.6 in an infected group, thus showing a remarkable immunity inhibitory state. In compliance with this, atrophy of thymus and decrease in the number of thymic cortex lymphocytes were observed.
In a group to which muramyl dipeptide was administered in an amount of 20 µg/mouse together with Freund incomplete adjuvant, the number of hemolysis plaques was 11±2.
Next, recovery of the immune function by immunity-enhancing substance was examined, using new-born mice infected with REO virus type II. Two weeks after the infection of the mice with the virus, sheep red blood cells were administered to the mice, and 4 days after the administration, Jerne plaque assay was carried out to measure the number of hemolysis plaques. […]
Mice infected with virus was immunized at the same time with SRBC and an immunostimulant, and 4 days after the immunization, the number of hemolysis plaques was measured by Jerne plaque assay. […]

Question: What does the source list for `C[C@H](NC(=O)[C@@H]1CCC(=O)N1)C(=O)N[C@@H](CCCCN)C(=O)N[C@@H](CO)C(=O)N[C@@H](CCC(N)=O)C(=O)NCC(=O)NCC(=O)N[C@@H](CO)C(=O)N[C@@H](CC(N)=O)C(=O)O` [FTS, pGlu-Ala-Lys-Ser-Gln-Gly-Gly-Ser-Asn] ([pGlu]AKSQGGSN-OH)?
Answer: abnormal symptom in external behavior observation, biochemical diagnosis of sera and pathological anatomy [1]: no abnormal symptom was found; toxicity [1]: No toxicity was observed; toxicity ([2]; 50 mg/kg and 100mg/kg subcutaneously for consecutive 14 days): No toxicity was observed; abnormal symptom by external check ([2]; 100 mg/kg subcutaneously every day for consecutive 14 days): no abnormal symptom was found

Question: Which PFC/10⁶ spleen cells (REO virus type II) does the source give for `CC(=O)N[C@H]1C(O)O[C@H](CO)[C@@H](O)[C@@H]1O[C@H](C)C(=O)N[C@@H](C)C(=O)N[C@H](CCC(=O)O)C(N)=O` (some centres unmarked) [MDP, muramyl dipeptide] here?
Answer: 11±2 PFC/10⁶ spleen cells
